Laboratory results reported in article PMC5054527, “Mechanism of high affinity inhibition of the human urate transporter URAT1” (Scientific Reports, 2016).
Residue numbers refer to the chain shown, from its start. Like-named read-outs stand apart in the source and are kept apart here.

Assays:
Test in all cases: URAT1 uric acid transport activity assay
[1] = target: T1, r-Y365F rURAT1 point mutant (Rattus norvegicus, UniProt Q3ZAV1, Y365F); type: cell-based; details: for fold increased affinity of r-Y365F compared to rURAT1: from IC50 values
T1 sequence (Q3ZAV1 1-553 Y365F): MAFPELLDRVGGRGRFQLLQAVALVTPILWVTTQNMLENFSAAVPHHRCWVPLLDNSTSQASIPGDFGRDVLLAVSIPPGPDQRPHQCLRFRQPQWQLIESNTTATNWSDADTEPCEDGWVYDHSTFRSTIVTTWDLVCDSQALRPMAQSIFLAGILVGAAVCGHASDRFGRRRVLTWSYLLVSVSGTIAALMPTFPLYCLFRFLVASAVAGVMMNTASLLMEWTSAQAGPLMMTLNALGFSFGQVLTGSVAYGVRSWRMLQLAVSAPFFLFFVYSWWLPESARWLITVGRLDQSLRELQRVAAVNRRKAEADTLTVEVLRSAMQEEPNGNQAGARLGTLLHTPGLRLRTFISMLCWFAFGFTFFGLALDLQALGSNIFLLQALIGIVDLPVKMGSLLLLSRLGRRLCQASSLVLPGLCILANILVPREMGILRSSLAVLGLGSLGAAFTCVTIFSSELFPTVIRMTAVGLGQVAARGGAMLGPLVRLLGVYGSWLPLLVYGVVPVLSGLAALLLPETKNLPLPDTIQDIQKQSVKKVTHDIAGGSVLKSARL
Summary of the method: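 Readout: 14C-uric acid uptake (100 μM, 10 min) in cells transiently transfected one day earlier with mutant rURAT1. Serially diluted inhibitors were added 5 min before substrate. Triplicate points, four-parameter logistic fit for IC50.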

[2] = target: T2, r-N35S/Y365F/M481I rURAT1 triple point mutant (Rattus norvegicus, UniProt Q3ZAV1, M481I/N35S/Y365F); type: cell-based
T2 construct: hURAT1 and rURAT1 are 553 amino acid proteins with 12 transmembrane segments; expressed in transfected cells; host or cells: HEK-293T
T2 sequence (Q3ZAV1 1-553 N35S/Y365F/M481I): T1 sequence (Q3ZAV1 1-553 Y365F) with N35S, M481I
Summary of the method: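 Cells expressing site-directed rat URAT1 mutants were exposed to inhibitor dilutions for 5 minutes before radiolabelled uric acid (100 μM) was added for 10 minutes. Potency was derived by nonlinear regression of log inhibitor versus response.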

r-h TM1-C URAT1 chimera = target: T3, r-h TM1-C URAT1 chimera (Rattus norvegicus, UniProt Q3ZAV1, L29M/N35S/P27S/T32C/V31L); type: cell-based, human/rat
T3 sequence (Q3ZAV1 1-553 P27S/L29M/V31L/T32C/N35S): T1 sequence (Q3ZAV1 1-553 Y365F) with P27S, L29M, V31L, T32C, N35S, F365Y
Source text: hURAT1 (GenBank BC053348.1) and rURAT1 (NCBI NM_001034943.1) genes were purchased from Origene Technologies, Inc. and subcloned into pCMV6/neo using NotI, creating pCMV6/neo-hURAT1 and pCMV6/neo-rURAT1. Mutants were produced by polymerase chain reaction (PCR) or site-directed mutagenesis using the QuikChange Lightning Multi Site-Directed Mutagenesis Kit (Agilent Technologies). […] Detailed methods are provided in Supplementary Methods, and primers are listed in Supplementary Table 1. […] Residues in rURAT1 and hOAT1 that correspond to the residues in hURAT1 were identified from aligned protein sequences (Supplementary Fig. 1)[50].
DNA (10 μg) was mixed with 30 μl of DreamFect Gold (Boca Scientific) in 2 ml OptiMem (Life Technologies). After 20 minutes, 18 ml of media containing 2 × 10^7 cells in suspension was added and mixed, and 200 μl per well were plated onto white clear-bottomed poly-D-lysine coated 96-well plates (BD Biosciences). The cells were assayed the following day.
Compounds were serially diluted into assay buffer and added to the cells for 5 minutes prior to addition of radiolabelled uric acid substrate. URAT1-expressing cells were incubated with 100 μM ^14C-uric acid for 10 minutes. […] Each treatment was measured in triplicate.
Unlabelled uric acid was prepared at a 20 mM stock just prior to use in a solution containing 20 mM dibasic potassium phosphate and 20 mM potassium hydroxide.
Nonlinear regression analyses using GraphPad Prism software were used to calculate the potency of URAT1 inhibitors (IC50 values) from log (inhibitor) versus response - variable slope (four parameters) equations. Statistical significance was assessed using Student’s unpaired t-tests.

[3] = r-Y365F, MES pH 5.5, 100 μM 14C-uric acid, read-out: IC50 (uric acid transport)

SMILES: CCc1oc2ccccc2c1C(=O)c1cc(Br)c(O)c(Br)c1 [benzbromarone]
- IC50 [1]: 9.4 ± 1.6 µM
- IC50 [2]: 0.61 ± 0.04 µM
- IC50 (r-h TM1-C URAT1 chimera): 12 ± 0.78 µM

SMILES: O=C(O)CSc1nnc(Br)n1-c1ccc(C2CC2)c2ccccc12 [lesinurad, 2-((5-bromo-4-(4-cyclopropylnaphthalen-1-yl)-4H-1,2,4-triazol-3-yl)thio)acetic acid]
- IC50 [1, 3]: 15 ± 3 µM
- IC50 ([2]; r-N35S/Y365F/M481I, MES pH 5.5, 100 μM 14C-uric acid, read-out: IC50 (uric acid transport)): 1.2 ± 0.14 µM
- IC50 (r-h TM1-C URAT1 chimera; r-h TM1-C, MES pH 5.5, 100 μM 14C-uric acid, read-out: IC50 (uric acid transport)): 17 ± 2 µM

SMILES: O=C1C(CC[S+]([O-])c2ccccc2)C(=O)N(c2ccccc2)N1c1ccccc1 (stereo not drawn) [sulfinpyrazone]
- fold increased affinity of r-Y365F compared to rURAT1 [1]: 2.7 fold
- IC50 ([1]; r-Y365F, HEPES pH 7.3, 100 μM 14C-uric acid, read-out: IC50 (uric acid transport)): 255 ± 27 µM
- IC50 ([2]; r-N35S/Y365F/M481I, HEPES pH 7.3, 100 μM 14C-uric acid, read-out: IC50 (uric acid transport)): 49 ± 2.2 µM
- IC50 (r-h TM1-C URAT1 chimera; r-h TM1-C, HEPES pH 7.3, 100 μM 14C-uric acid, read-out: IC50 (uric acid transport)): 25 ± 6.7 µM

SMILES: O=c1[nH]c(=O)c2[nH]c(=O)[nH]c2[nH]1 [uric acid]
- fold increased affinity of r-Y365F compared to rURAT1 [1]: 1.6 fold
- IC50 [1, 3]: 1640 µM
